Data from US12016357B2, “Glycoside compositions” (CARGILL, INCORPORATED, priority 2015, dated 2024).

Tests used:
[1] = Trained sensory panel rating of sweetness and bitterness intensity, Example 2 (measured values, S/B); assay type: in vivo; conditions: for Measured Bitterness / Measured Sweetness: citric acid buffer, scale 1-15; for Measured S/B: sweetness/bitterness ratio
Experimental: A trained sensory panel evaluated solutions of each rebaudioside D, rebaudioside M, rebaudioside G, rebaudioside O, rebaudioside N and rebaudioside E at 400 ppm and 600 ppm. Solutions were made in a citric acid buffer as the reference standard solutions described in Example 1. All solutions were heated to 55° C. for 12 minutes to ensure that all the glycoside material was completely dissolved. The solutions were allowed to cool to room temperature before serving to the panelists. Each solution was given a random 3-digit code and was served to the panelists in random order. Panelists dispensed 2 mL of each solution into their mouths from a pipette. The panelists were then asked to rate the “sweetness intensity” and “bitterness intensity” of the solutions and mark their responses on an un-anchored, 15 cm line scale. The length of the line corresponds to the scale values (1-15) on which the participants were trained. The panelists' responses were measured, compiled, and averaged for each sample (measured sweetness values and bitterness values). In between testing samples, the panelists cleansed their palates with water and apple slices. The panelists also waited 5 minutes between each sample. Rebaudioside D (purity of 94.4%) was obtained from ChromaDex™ Corp and rebaudioside M (purity 99.3%) was obtained from Cargill, Incorporated. Rebaudioside G (purity of 96.0%), Rebaudioside O (purity of 97.9%), Rebaudioside N (purity of 93.5%), Rebaudioside E (purity of 97.2%) were each obtained from ChromaaDex™ Corp. […] Also shown in Table 7 is the sweetness/bitterness ratios (S/B).

[2] = Trained sensory panel rating of sweetness intensity (SEV) and bitterness intensity, Example 1; assay type: in vivo; conditions: for Sweetness Avg. / Bitter Avg.: mean of five replicate tests; for Bitter Avg.: caffeine scale 1-15
Experimental: A sensory panel was trained to scale sweetness and bitterness. Reference tasting standards were prepared by dissolving respective standard material (sucrose for sweetness and caffeine for bitterness) into an aqueous citric acid buffer solution at pH 3.1 (distilled water containing 0.1% citric acid and 0.015% sodium citrate) according to the scale values shown in Table 1 below.
Solutions were made in the same citric acid buffer as the reference standard solutions. All solutions were heated to 55° C. for 12 minutes to ensure that all the glycoside material was completely dissolved. The solutions were allowed to cool to room temperature before serving to the panelists. Each solution was given a random 3-digit code and was served to the panelists in random order. Panelists dispensed 2 mL of each solution into their mouths from a pipette. The panelists were then asked to rate the “sweetness intensity” and “bitterness intensity” of the solutions and mark their responses on an un-anchored, 15 cm line scale. The length of the line corresponds to the scale values (1-15) on which the participants were trained. The panelists' responses were measured, compiled, and averaged for each sample. Each sample was tested by approximately 17 to 21 trained panelists.
In between testing samples, the panelists cleansed their palates with water and apple slices. The panelists also waited 5 minutes between each sample. Sweetness and bitter values of rebaudioside D (purity of 94.4%) and rebaudioside M (purity of […]) at varying concentrations were also obtained utilizing a sensory panel in a manner as described above. The sweetness is reported as sweetness and the sweetness is measured as a sucrose equivalent (SEV).
The sweetness and bitterness values of sweetener compositions containing Reb D or Reb M with other glycosides are shown in Tables 3-5. As described above, the samples were tasted by the panelist in random order. The tables show the concentration of the composition tested (ppm) as well as the ratio of one glycoside to another in the composition as a weight percentage.

[3] = 400 ppm in citric acid buffer pH 3.1
[4] = 600 ppm in citric acid buffer pH 3.1
[5] = total blend 400 ppm, citric acid buffer pH 3.1

Structure (SMILES) | Measured Bitterness ([1]; 400 ppm) | Measured Sweetness ([1]; 400 ppm) | Measured S/B ([1]; 400 ppm) | Measured Bitterness ([1]; 600 ppm) | Measured Sweetness ([1]; 600 ppm) | Measured S/B ([1]; 600 ppm) | Sweetness Avg. [2, 3] [SEV] | Bitter Avg. [2, 3] | Sweetness Avg. [2, 4] [SEV] | Bitter Avg. [2, 4] | Bitter [2, 5] | Sweetness [2, 5] [SEV]
C=C1C[C@@]23CC[C@H]4[C@@](C)(CCC[C@@]4(C)C(=O)O[C@@H]4O[C@H](CO)[C@@H](O)[C@H](O)[C@H]4O[C@@H]4O[C@H](CO)[C@@H](O)[C@H](O)[C@H]4O)[C@@H]2CC[C@]1(O[C@@H]1O[C@H](CO)[C@@H](O)[C@H](O[C@@H]2O[C@H](CO)[C@@H](O)[C@H](O)[C@H]2O)[C@H]1O[C@@H]1O[C@H](CO)[C@@H](O)[C@H](O)[C@H]1O)C3 [Reb D, Rebaudioside D] | 3.51 | 7.08 | 2.05 | 3.80 | 8.31 | 2.23 | 7.1 | 3.6 | 8.3 | 4.2 | – | –
C=C1C[C@@]23CC[C@H]4[C@@](C)(CCC[C@@]4(C)C(=O)O[C@@H]4O[C@H](CO)[C@@H](O)[C@H](O)[C@H]4O[C@@H]4O[C@H](CO)[C@@H](O)[C@H](O)[C@H]4O)[C@@H]2CC[C@]1(O[C@@H]1O[C@H](CO)[C@@H](O)[C@H](O)[C@H]1O[C@@H]1O[C@H](CO)[C@@H](O)[C@H](O)[C@H]1O)C3 [Reb E, Rebaudioside E] | 2.93 | 4.53 | 1.55 | 2.98 | 6.29 | 2.11 | – | – | – | – | – | –
C=C1C[C@@]23CC[C@H]4[C@@](C)(CCC[C@@]4(C)C(=O)O[C@@H]4O[C@H](CO)[C@@H](O)[C@H](O)[C@H]4O)[C@@H]2CC[C@]1(O[C@@H]1O[C@H](CO)[C@@H](O)[C@H](O[C@@H]2O[C@H](CO)[C@@H](O)[C@H](O)[C@H]2O)[C@H]1O)C3 [Reb G, Rebaudioside G] | 2.53 | 2.17 | 0.86 | 2.30 | 1.98 | 0.84 | – | – | – | – | – | –
C=C1C[C@@]23CC[C@H]4[C@@](C)(CCC[C@@]4(C)C(=O)O[C@@H]4O[C@H](CO)[C@@H](O)[C@H](O[C@@H]5O[C@H](CO)[C@@H](O)[C@H](O)[C@H]5O)[C@H]4O[C@@H]4O[C@H](CO)[C@@H](O)[C@H](O)[C@H]4O)[C@@H]2CC[C@]1(O[C@@H]1O[C@H](CO)[C@@H](O)[C@H](O[C@@H]2O[C@H](CO)[C@@H](O)[C@H](O)[C@H]2O)[C@H]1O[C@@H]1O[C@H](CO)[C@@H](O)[C@H](O)[C@H]1O)C3 [Reb M, Rebaudioside M] | 3.65 | 7.76 | 2.14 | 3.76 | 8.38 | 2.26 | 7.7 | 3.8 | 8.4 | 4.2 | – | –
C=C1C[C@@]23CC[C@H]4[C@@](C)(CCC[C@@]4(C)C(=O)O[C@@H]4O[C@H](CO)[C@@H](O)[C@H](O[C@@H]5O[C@H](CO)[C@@H](O)[C@H](O)[C@H]5O)[C@H]4O[C@@H]4O[C@@H](C)[C@H](O)[C@@H](O)[C@H]4O)[C@@H]2CC[C@]1(O[C@@H]1O[C@H](CO)[C@@H](O)[C@H](O[C@@H]2O[C@H](CO)[C@@H](O)[C@H](O)[C@H]2O)[C@H]1O[C@@H]1O[C@H](CO)[C@@H](O)[C@H](O)[C@H]1O)C3 [Reb N, Rebaudioside N] | 3.03 | 7.44 | 2.45 | 3.25 | 7.709 | 2.37 | – | – | – | – | – | –
C=C1C[C@@]23CC[C@H]4[C@@](C)(CCC[C@@]4(C)C(=O)O[C@@H]4O[C@H](CO)[C@@H](O)[C@H](O[C@@H]5O[C@H](CO)[C@@H](O)[C@H](O)[C@H]5O)[C@H]4O[C@@H]4O[C@@H](C)[C@H](O)[C@@H](O[C@@H]5O[C@H](CO)[C@@H](O)[C@H](O)[C@H]5O)[C@H]4O)[C@@H]2CC[C@]1(O[C@@H]1O[C@H](CO)[C@@H](O)[C@H](O[C@@H]2O[C@H](CO)[C@@H](O)[C@H](O)[C@H]2O)[C@H]1O[C@@H]1O[C@H](CO)[C@@H](O)[C@H](O)[C@H]1O)C3 [Reb O, Rebaudioside O] | 2.98 | 7.47 | 2.51 | 3.23 | 7.669 | 2.37 | – | – | – | – | 3.1 | 7.2
